The values below are quoted from earlier work in patent US20230157303A1, “Plant-Based Pesticide” (priority 2022, published 2023).

Test systems include aquatic wildlife; humans and other mammals; honeybees.
What all share (conditions): in vivo

For `CC1(C)C(C=C(Cl)Cl)C1C(=O)OC(C#N)c1cccc(Oc2ccccc2)c1` (centres unmarked) [Cypermethrin], the “toxicity to aquatic wildlife” value with aquatic wildlife is recorded as “highly toxic”. For the same compound, the “toxicity to humans and other mammals” value in the data set on humans and other mammals is “acutely toxic”. In addition, the toxicity to honeybees result with honeybees is reported as “very highly toxic”.
For the compound `CCOP(=S)(OCC)Oc1cc(C)nc(C(C)C)n1` [diazinon, Diazinon], the toxicity to honeybees entry in the data set with honeybees is “toxic”.
With `CCOC(=O)CC(SP(=S)(OC)OC)C(=O)OCC` (centres unmarked) [malathion, Malathion], the toxicity to honeybees result in the data set on honeybees is reported as “toxic”.
